Data published in the NIST ThermoML archive (doi:10.1016/j.tca.2014.04.018).
Where “and” joins values, the source holds several entries; their conditions need not be identical. Equal entries are not always repeated.

Details: Liquid, Calculated from knudsen effusion weight loss

CCCc1cc(=O)[nH]c(=S)[nH]1 [6-propyl-2-thiouracil]
Details	vapor or sublimation pressure
401.14 K	0.000103 kPa and 0.000101 kPa and 9.7e-05 kPa
403.18 K	0.000124 kPa and 0.000123 kPa and 0.000118 kPa
405.17 K	0.000151 kPa and 0.000144 kPa
407.15 K	0.000196 kPa and 0.000185 kPa and 0.000178 kPa
409.17 K	0.000231 kPa and 0.000224 kPa and 0.000216 kPa
411.16 K	0.000274 kPa and 0.000265 kPa
413.15 K	0.000332 kPa and 0.000325 kPa and 0.000317 kPa
415.17 K	0.00041 kPa and 0.000398 kPa and 0.000382 kPa
417.18 K	0.000484 kPa and 0.000485 kPa and 0.000468 kPa
419.15 K	0.000583 kPa and 0.000558 kPa
421.22 K	0.000714 kPa and 0.000706 kPa and 0.00068 kPa
423.21 K	0.000853 kPa and 0.000839 kPa and 0.00083 kPa
